Tests used:
SC-β cells [1] = assay: In vitro SC-β cell function screen: stimulation index of SC-β cells generated with the agent; format: cell-based, human; settings: FIG. 1A
Procedure: Stimulation index=[insulin@20 mM glucose]/[insulin@2 mM glucose]. Relative Stim Index=Stim Index/Stim Index of Control.
FIG. 3 is a schematic illustration depicting an overview of the chemicals used and approach for the initial screen.

beta cells = settings: Table 1, background knowledge on the screened compounds; cited from earlier work
TGFRII = TGFRII (Homo sapiens, UniProt P37173); settings: relative to TGFRI kinase (ALK5); cited from earlier work
Chain of TGFRII (P37173 23-567): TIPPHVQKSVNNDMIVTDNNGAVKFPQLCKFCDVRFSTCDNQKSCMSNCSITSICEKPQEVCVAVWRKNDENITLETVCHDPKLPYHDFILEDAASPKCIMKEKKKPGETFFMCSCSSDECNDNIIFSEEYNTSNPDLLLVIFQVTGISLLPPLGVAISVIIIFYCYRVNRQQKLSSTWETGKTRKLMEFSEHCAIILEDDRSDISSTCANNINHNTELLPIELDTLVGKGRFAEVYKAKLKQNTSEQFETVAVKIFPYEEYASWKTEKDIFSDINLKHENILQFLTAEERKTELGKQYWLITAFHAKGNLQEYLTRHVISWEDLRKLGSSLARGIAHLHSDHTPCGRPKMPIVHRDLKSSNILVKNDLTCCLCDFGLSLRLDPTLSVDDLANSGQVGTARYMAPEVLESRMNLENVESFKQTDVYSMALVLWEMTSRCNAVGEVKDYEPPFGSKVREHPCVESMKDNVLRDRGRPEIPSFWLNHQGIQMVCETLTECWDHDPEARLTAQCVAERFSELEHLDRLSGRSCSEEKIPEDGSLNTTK

[2] = system: p38a, p38b, p38d, JNK1, EGFR, MAPKAPK2, MKK6, ERK2, PKC, PKA, PKD, CDC2, and CaMKII; settings: relative to TGFRI kinase (ALK5); cited from earlier work
SC-β cells [3] = assay: In vivo function of SC-β cells generated with the agents, after transplantation into mice
Text: FIG. 4B is a Table quantifying the improvement in stimulation index and mean 30′ insulin post injection illustrated in FIG. 4A.
FIG. 5B is a Table quantifying the improvement in stimulation index and mean 30′ insulin post injection illustrated in FIG. 5A.

AMPK = settings: cited from earlier work
ALK5 = target: T1, ALK5 (Homo sapiens, UniProt P36897); settings: cited from earlier work
T1 sequence (P36897 34-503): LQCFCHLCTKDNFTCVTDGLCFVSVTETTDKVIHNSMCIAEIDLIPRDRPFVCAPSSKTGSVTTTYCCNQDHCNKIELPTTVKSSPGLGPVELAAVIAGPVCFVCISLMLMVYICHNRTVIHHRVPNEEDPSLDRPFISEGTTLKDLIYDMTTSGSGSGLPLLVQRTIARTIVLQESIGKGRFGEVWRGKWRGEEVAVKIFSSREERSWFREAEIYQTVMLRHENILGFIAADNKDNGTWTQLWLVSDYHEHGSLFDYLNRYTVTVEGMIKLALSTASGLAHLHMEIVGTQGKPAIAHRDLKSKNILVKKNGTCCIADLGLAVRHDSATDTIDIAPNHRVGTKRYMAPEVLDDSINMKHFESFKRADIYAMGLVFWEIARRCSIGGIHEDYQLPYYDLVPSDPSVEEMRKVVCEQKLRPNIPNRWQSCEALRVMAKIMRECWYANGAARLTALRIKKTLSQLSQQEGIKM

KDR (VEGFR-2) = KDR (VEGFR-2) (Homo sapiens, UniProt P35968); settings: cited from earlier work
Chain of KDR (VEGFR-2) (P35968 20-1356, species assumed): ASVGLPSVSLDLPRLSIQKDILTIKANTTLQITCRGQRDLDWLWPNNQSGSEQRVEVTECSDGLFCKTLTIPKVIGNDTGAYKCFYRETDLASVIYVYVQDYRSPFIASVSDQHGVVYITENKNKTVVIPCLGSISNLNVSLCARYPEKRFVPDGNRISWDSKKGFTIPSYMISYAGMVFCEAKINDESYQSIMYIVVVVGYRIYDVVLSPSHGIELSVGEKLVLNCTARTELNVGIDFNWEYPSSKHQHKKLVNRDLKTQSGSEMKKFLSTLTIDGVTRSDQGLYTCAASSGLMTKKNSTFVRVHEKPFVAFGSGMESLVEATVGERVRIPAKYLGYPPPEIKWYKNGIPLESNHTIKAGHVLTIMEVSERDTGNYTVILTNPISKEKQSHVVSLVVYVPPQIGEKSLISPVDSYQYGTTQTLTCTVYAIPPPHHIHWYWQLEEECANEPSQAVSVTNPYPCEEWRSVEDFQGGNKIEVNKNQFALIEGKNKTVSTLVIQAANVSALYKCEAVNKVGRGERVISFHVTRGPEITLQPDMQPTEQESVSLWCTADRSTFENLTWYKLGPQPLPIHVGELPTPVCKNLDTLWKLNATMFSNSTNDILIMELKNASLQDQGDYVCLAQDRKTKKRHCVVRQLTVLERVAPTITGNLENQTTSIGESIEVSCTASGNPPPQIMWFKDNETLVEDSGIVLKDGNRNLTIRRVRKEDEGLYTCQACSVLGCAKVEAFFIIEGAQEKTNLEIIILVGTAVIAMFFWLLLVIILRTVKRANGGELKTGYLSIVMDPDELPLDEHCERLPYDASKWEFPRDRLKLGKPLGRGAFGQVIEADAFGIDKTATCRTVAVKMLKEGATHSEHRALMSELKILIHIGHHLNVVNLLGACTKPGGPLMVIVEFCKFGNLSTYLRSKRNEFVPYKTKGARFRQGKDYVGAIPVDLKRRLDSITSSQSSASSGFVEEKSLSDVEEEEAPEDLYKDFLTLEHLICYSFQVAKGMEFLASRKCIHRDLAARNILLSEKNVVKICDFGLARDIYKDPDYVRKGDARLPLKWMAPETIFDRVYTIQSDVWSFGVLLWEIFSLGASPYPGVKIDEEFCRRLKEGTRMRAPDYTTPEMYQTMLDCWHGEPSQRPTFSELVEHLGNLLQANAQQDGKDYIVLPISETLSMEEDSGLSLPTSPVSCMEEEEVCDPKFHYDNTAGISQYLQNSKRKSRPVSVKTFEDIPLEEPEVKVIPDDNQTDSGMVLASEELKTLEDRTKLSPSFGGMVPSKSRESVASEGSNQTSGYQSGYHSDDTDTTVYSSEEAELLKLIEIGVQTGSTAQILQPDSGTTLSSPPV

PDGFRβ = PDGFRβ (Homo sapiens, UniProt P09619); settings: cited from earlier work
Chain of PDGFRβ (P09619 33-1106, species assumed): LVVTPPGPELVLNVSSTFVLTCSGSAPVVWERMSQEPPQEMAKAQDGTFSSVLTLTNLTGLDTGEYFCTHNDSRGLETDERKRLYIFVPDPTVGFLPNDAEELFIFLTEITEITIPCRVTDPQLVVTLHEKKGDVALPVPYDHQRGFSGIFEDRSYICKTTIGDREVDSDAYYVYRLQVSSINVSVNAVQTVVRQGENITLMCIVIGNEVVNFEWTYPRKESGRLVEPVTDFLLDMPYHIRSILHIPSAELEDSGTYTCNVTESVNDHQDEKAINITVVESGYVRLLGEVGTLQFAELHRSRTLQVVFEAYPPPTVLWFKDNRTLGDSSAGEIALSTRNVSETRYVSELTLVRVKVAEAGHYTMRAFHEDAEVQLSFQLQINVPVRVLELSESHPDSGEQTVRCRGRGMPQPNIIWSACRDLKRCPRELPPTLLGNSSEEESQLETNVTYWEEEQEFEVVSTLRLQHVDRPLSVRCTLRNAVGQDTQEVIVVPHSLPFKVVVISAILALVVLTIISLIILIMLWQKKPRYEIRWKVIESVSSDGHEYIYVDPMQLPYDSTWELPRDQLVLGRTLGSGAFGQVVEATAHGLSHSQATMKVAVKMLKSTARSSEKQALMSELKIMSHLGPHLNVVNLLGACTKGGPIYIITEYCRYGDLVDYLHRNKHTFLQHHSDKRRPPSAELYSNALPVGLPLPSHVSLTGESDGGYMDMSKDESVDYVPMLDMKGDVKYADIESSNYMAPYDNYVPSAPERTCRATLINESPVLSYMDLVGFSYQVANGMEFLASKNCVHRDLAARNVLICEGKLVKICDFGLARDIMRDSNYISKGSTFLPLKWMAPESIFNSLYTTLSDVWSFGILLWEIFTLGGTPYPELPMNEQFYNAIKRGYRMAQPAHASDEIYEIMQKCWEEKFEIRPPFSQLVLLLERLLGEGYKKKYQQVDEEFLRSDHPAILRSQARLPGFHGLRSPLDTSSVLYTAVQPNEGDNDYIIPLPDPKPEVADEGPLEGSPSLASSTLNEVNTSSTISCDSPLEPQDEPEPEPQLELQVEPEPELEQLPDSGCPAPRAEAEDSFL

[4] = system: BMP4-induced phosphorylation of Smads 1, 5 and 8; settings: HEK293 cells; cited from earlier work

SMILES | Stimulation index of resulting SC-β cells relative to control SC-β cells (SC-β cells [1]; concentration not given) | Effect on Beta Cells (beta cells) | other results
N#CC(=C(/N)Sc1ccccc1N)/C(C#N)=C(\N)Sc1ccccc1N [U0126] | worse stimulation indices | Reduced apoptosis in beta cells | 
Fc1ccc(Cl)cc1-c1nc(Nc2ccncc2)c2nccnc2n1 [SD208] |  | Helps maintain growth of human pancreatic cancer cells | Specificity against TGFRII (TGFRII): > 100 fold; Specificity over members of a panel of related protein kinases [2]: at least 17 fold
C[S+]([O-])c1ccc(-c2nc(-c3ccc(F)cc3)c(-c3ccncc3)[nH]2)cc1 (stereo not drawn) [SB203580] | worse stimulation indices | Reduced apoptosis in beta cells | 
Oc1ccc(-c2nc(-c3ccc(F)cc3)c(-c3ccncc3)[nH]2)cc1 [SB202190] | worse stimulation indices | Reduced apoptosis in beta cells | 
NC(=O)c1ccc(-c2nc(-c3ccc4c(c3)OCO4)c(-c3ccccn3)[nH]2)cc1 [SB431542, 4-[4-(1,3-benzodioxol-5-yl)-5-(2-pyridinyl)-111-imidazol-2-yl]benzamide] |  | Reduces apoptosis of pancreatic beta cells, increases insulin | 
Cc1cccc(-c2nn(C(=S)Nc3ccccc3)cc2-c2ccnc3ccccc23)n1 [A83-01] | worse stimulation indices | Reduces apoptosis of pancreatic beta cells, increases insulin | 
CC(C)Oc1ccc(-c2cnc3c(-c4ccnc5ccccc45)cnn3c2)cc1 [DMH-1, 4-[6-[4-(1-Methylethoxy)phenyl]pyrazolo[1,5-a]pyrimidin-3-yl]-quinoline] |  | Aids differentiation of zebrafish beta cells | Stimulation index of resulting SC-β cells relative to control SC-β cells (SC-β cells [1]; agent 1 μM, Stimulation index=[insulin@20 mM glucose]/[insulin@2 mM glucose]): greater stimulation index; In vivo function of SC-β cells generated using the agent(s) (SC-β cells [3]; 2 weeks post-transplantation into mice, FIG. 4A): improved in vivo function; In vivo function of SC-β cells generated using the agent(s) (SC-β cells [3]; 4 weeks post-transplantation into mice, FIG. 5A): improved in vivo function; Inhibition of AMPK (AMPK): no detectable inhibition; Inhibition of ALK5 (ALK5): no detectable inhibition; Inhibition of KDR (VEGFR-2) (KDR (VEGFR-2)): no detectable inhibition; Inhibition of PDGFRβ receptors (PDGFRβ): no detectable inhibition; Effect on BMP4-induced phosphorylation of Smads 1, 5 and 8 [4]: block BMP4-induced phosphorylation of Smads 1, 5 and 8
